According to PubChem BioAssay AID330 (DTP/NCI, 2004):
Several values for one entry are separate records, joined by “and”; a condition that tells them apart may be missing. Identical values can stand only once. Inconclusive results and toxic doses are left out.

System: P388 leukemia ip, CD2F1 mice, survival T/C
Test: NCI In Vivo Anticancer Drug Screen. Data for tumor model P388 Leukemia (intraperitoneal) in CD2F1 (CDF1) mice
Settings: endpoint: median survival time, higher = longer survival
Outline: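 Mice carrying the transplanted tumor received test compound or vehicle. Survival was recorded in each group, and the value is the treated-group measurement divided by that of the vehicle-treated control group.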

[1] = dose: 25.0 mg/kg/injection, schedule: Q01DX009 (ip), vehicle: saline
[2] = dose: 60.0 mg/kg/injection, schedule: Q01DX005 (ip), vehicle: Klucel (hydroxypropylcellulose) (HPC)
[3] = dose: 120.0 mg/kg/injection, schedule: Q01DX005 (ip), vehicle: Klucel (hydroxypropylcellulose) (HPC)
[4] = dose: 240.0 mg/kg/injection, schedule: Q01DX005 (ip), vehicle: Klucel (hydroxypropylcellulose) (HPC)
[5] = dose: 100.0 mg/kg/injection, schedule: Q01DX009 (ip), vehicle: saline with Tween-80
[6] = dose: 200.0 mg/kg/injection, schedule: Q01DX009 (ip), vehicle: saline with Tween-80

C/C1=C\CCC(C)C2CCC(C)(O2)C(O)C(O)c2c(C)coc2C1 (stereo unspecified)
T/C (dose: 4.0 mg/kg/injection, schedule: Q01DX009 (ip), vehicle: Klucel (hydroxypropylcellulose) (HPC)): 100 % of control | T/C (dose: 8.0 mg/kg/injection, schedule: Q01DX009 (ip), vehicle: Klucel (hydroxypropylcellulose) (HPC)): 105 % of control | T/C (dose: 16.0 mg/kg/injection, schedule: Q01DX009 (ip), vehicle: Klucel (hydroxypropylcellulose) (HPC)): 100 % of control | T/C (dose: 32.0 mg/kg/injection, schedule: Q01DX009 (ip), vehicle: Klucel (hydroxypropylcellulose) (HPC)): 94 % of control

CCOC(=O)C(CC)Oc1ccc(Cl)cc1 (stereo unspecified)
T/C (dose: 50.0 mg/kg/injection, schedule: Q01DX009 (ip), vehicle: Klucel (hydroxypropylcellulose) (HPC)): 102 % of control | T/C (dose: 100.0 mg/kg/injection, schedule: Q01DX009 (ip), vehicle: Klucel (hydroxypropylcellulose) (HPC)): 89 % of control

O=[N+]([O-])c1cc(NC(=S)SC2CCCCC2)ccc1Cl
T/C [1]: 107 % of control and 108 % of control | T/C (dose: 50.0 mg/kg/injection, schedule: Q01DX009 (ip), vehicle: saline): 100 % of control and 104 % of control and 93 % of control | T/C (dose: 100.0 mg/kg/injection, schedule: Q01DX009 (ip), vehicle: saline): 102 % of control and 110 % of control and 90 % of control | T/C (dose: 200.0 mg/kg/injection, schedule: Q01DX009 (ip), vehicle: saline): 100 % of control and 104 % of control and 122 % of control

O=C(NCc1nc2ccccc2[nH]1)C(F)(F)F
T/C [2]: 103 % of control | T/C [3]: 105 % of control | T/C [4]: 104 % of control

NNC(=O)C1C2c3ccccc3C(c3ccccc32)C1C(=O)NN (stereo unspecified)
T/C (dose: 60.0 mg/kg/injection, schedule: Q01DX005 (ip), vehicle: saline with Tween-80): 99 % of control | T/C (dose: 120.0 mg/kg/injection, schedule: Q01DX005 (ip), vehicle: saline with Tween-80): 99 % of control | T/C (dose: 240.0 mg/kg/injection, schedule: Q01DX005 (ip), vehicle: saline with Tween-80): 96 % of control

CC(O)C([NH-])C(=O)O.CC([NH-])C(=O)O.[Cu+2] (stereo unspecified)
T/C (dose: 6.25 mg/kg/injection, schedule: Q01DX009 (ip), vehicle: saline): 94 % of control | T/C (dose: 12.5 mg/kg/injection, schedule: Q01DX009 (ip), vehicle: saline): 97 % of control | T/C [1]: 94 % of control

COc1ccc(Br)cc1/C=N\NS(=O)(=O)c1ccc(C)cc1
T/C [5]: 104 % of control | T/C (dose: 100.0 mg/kg/injection, schedule: Q04DX003 (ip), vehicle: saline with Tween-80): 116 % of control | T/C [6]: 109 % of control | T/C (dose: 200.0 mg/kg/injection, schedule: Q04DX003 (ip), vehicle: saline with Tween-80): 100 % of control | T/C (dose: 400.0 mg/kg/injection, schedule: Q01DX009 (ip), vehicle: saline with Tween-80): 122 % of control | T/C (dose: 400.0 mg/kg/injection, schedule: Q04DX003 (ip), vehicle: saline with Tween-80): 108 % of control

O=c1c2ccc(Cl)cc2nc2n1OCC2
T/C (dose: 100.0 mg/kg/injection, schedule: Q01DX001 (ip), vehicle: Klucel (hydroxypropylcellulose) (HPC)): 106 % of control | T/C (dose: 200.0 mg/kg/injection, schedule: Q01DX001 (ip), vehicle: Klucel (hydroxypropylcellulose) (HPC)): 100 % of control | T/C (dose: 400.0 mg/kg/injection, schedule: Q01DX001 (ip), vehicle: Klucel (hydroxypropylcellulose) (HPC)): 101 % of control

COc1ccc(/C=N\NC(=O)CNC(=O)Nc2cccc(C(F)(F)F)c2)cc1OC
T/C (dose: 3.13 mg/kg/injection, schedule: Q01DX009 (ip), vehicle: saline with Tween-80): 112 % of control | T/C (dose: 6.25 mg/kg/injection, schedule: Q01DX009 (ip), vehicle: saline with Tween-80): 108 % of control | T/C (dose: 12.5 mg/kg/injection, schedule: Q01DX009 (ip), vehicle: saline with Tween-80): 91 % of control

CCc1nc(N)nc(N)c1-c1ccc(N(C)Cc2ccccc2)c([N+](=O)[O-])c1
T/C [2]: 116 % of control | T/C [3]: 120 % of control | T/C [4]: 185 % of control | T/C (dose: 480.0 mg/kg/injection, schedule: Q01DX005 (ip), vehicle: Klucel (hydroxypropylcellulose) (HPC)): 205 % of control

CC(=O)Oc1ccccc1C#CC(=O)O
T/C (dose: 50.0 mg/kg/injection, schedule: Q01DX009 (ip), vehicle: saline with Tween-80): 96 % of control | T/C [5]: 90 % of control | T/C [6]: 94 % of control

COc1cc(C[C@H](CO)[C@H](CO)Cc2ccc3c(c2)OCO3)cc(OC)c1OC
T/C (dose: 12.5 mg/kg/injection, schedule: Q04DX002 (ip), vehicle: acetone): 100 % of control | T/C (dose: 25.0 mg/kg/injection, schedule: Q04DX002 (ip), vehicle: acetone): 102 % of control | T/C (dose: 50.0 mg/kg/injection, schedule: Q04DX002 (ip), vehicle: acetone): 103 % of control
